Read-outs that look alike come from different tables or passages of the source.
What was measured:
[1] = Solubility in DMSO for stock preparation; type: physicochemical
[2] = Experimental lipophilicity by RP-TLC; conditions: for RM0: RP-TLC, RP-18 F254S, acetone / Tris buffer pH 7.4, extrapolated to zero acetone; for log PTLC: from RM0 by calibration curve with eight reference compounds
Experimental: The retention mechanism in the RP-TLC method is based on the partition of substances between two phases. Silica gel (RP-18 F254S plates) was used as the hydrophobic stationary phase. In contrast, the hydrophilic mobile phase was a binary mixture of acetone and an aqueous solution of TRIS buffer.
Chromatographic analysis by RP-TLC was performed an aluminum backed silica gel RP-18 F254S
phenylanthracene] and tested betulin derivatives were dissolved in chloroform to obtain a
concentration of 2 mg/mL. The prepared solutions were spotted on the plates in the amount of 2 μL.
the next step, the chromatographic chambers were saturated 30 min of the appropriate mobile phases
consisting of a mixture of acetone (Merck, Darmstadt, Germany) and aqueous solution of buffer Tris
[(tris-hydroxymethyl)aminomethane] (Fluka, Loughborough, 0.2 M, pH 7.4). The amount of acetone in
the mobile phase were in the range 60-90% in 5% increments. The chromatograms were developed for
each compound in triplicate at room temperature. The spots of betulin derivatives were visualized by
spraying the plates with the mixture of ethanol and concentrated sulfuric acid (10:1, v/v) and heating
The retardation factor (Rf) were calculated according to the equation below:
(a-the distance from the start line to the spot center, b-the distance from the start line to the mobile
The RM values were calculated by the Bate-Smith and Westall equation:
The RM0 parameters were obtained by extrapolating on the acetone content to zero, according to the
Soczewiński-Wachtmeister equation:
(C-the percentage concentration of acetone in the mobile phase, b-the slope of the regression plot).
The calibration curve was determined using eight reference compounds.
compounds were determined under the same conditions as for betulin derivatives (Table S1).

MCF-7 cell line = experiment: Antiproliferative activity, SRB assay, MCF-7 breast carcinoma cells; conditions: for IC50: Homo sapiens, MCF7, 72 h, read-out: Cytotoxicity IC50 against MCF-7 cell line; for Calculated Selectivity Index SI, MCF-7: IC50 BALB/3T3 / IC50 MCF-7
Experimental: (§1) The in vitro antiproliferative activity tests have been conducted against four human cancer cell lines: MV4-11 biphenotypic B myelomonocytic leukemia cell line, A549 lung carcinoma cell line, MCF-7 breast carcinoma cell line, PC-3 prostate carcinoma cell line and one normal BALB/3T3 mouse fibroblast cell line. […] All tested compounds were dissolved in DMSO and diluted with a culture medium to a desired concentration. […] Cell viability, after 72 h incubation of the cells with tested compounds, was determined using tetrazolinum dye MTT (for MV4-11 cells) or sulforhodamine B (SRB test, for MCF-7, A549, PC-3, BALB/3T3 cells) colorimetric assays.
(§2) Human biphenotypic B myelomonocytic leukemia MV4-11, murine normal fibroblast BALB/3T3 cells were obtained from the American Type Culture Collection (USA); and human lung carcinoma A549, human breast cancer MCF-7 and human prostate adenocarcinoma PC-3 were obtained from the European Collection of Authenticated Cell Cultures (UK).
(§3) MV4-11 and PC-3 cells were cultured in RPMI 1640 medium (HIIET PAS, Poland) with 1.0 mM sodium pyruvate (only MV4-11) and 10% fetal bovine serum (FBS) (all from Merck, Darmstadt, Germany). A549 cells were cultured in RPMI 1640 + Opti-MEM (1:1) ((HIIET PAS, Poland and Gibco, UK) supplemented with 5% fetal bovine serum (Merck, Darmstadt, Germany). The MCF-7 cells were cultured in Eagle medium (HIIET PAS, Poland) supplemented with 8 mg/mL of insulin and 1% of MEM NON-Essential amino acid (all Merck, Darmstadt, Germany). Normal fibroblasts BALB/3T3 cells were cultured in DMEM medium (Gibco, UK) supplemented with 10% fetal bovine serum and 1.0 mM sodium pyruvate (all from Merck, Darmstadt, Germany). All culture media were supplemented with 2 mM L-glutamine (Merck, Darmstadt, Germany), 100 units/ml penicillin, (Polfa Tarchomin S.A., Poland) and 100 µg/mL streptomycin (Merck, Darmstadt, Germany). All cell lines were grown at 37 °C in a 5% CO2 humidified atmosphere.
(§4) The solutions of the tested compounds were prepared by dissolving the substances in DMSO to the desired concentration (25 mM). Then, the tested compounds were diluted in a culture medium to reach the final concentrations. Before addition of the tested compounds (24 h prior), the cells were plated in 96-well plates (Sarstedt, Germany) at a density of 1 × 10^4, 0.75 × 10^4 (MCF-7) or 0.5 × 10^4 (A549) cells per well. The assay was performed after 72 h of exposure to 100, 10, 1 and 0.1 µM concentration of the tested agents. […] The SRB method determined the amount of cellular proteins. The concentration of the colorimetric probe (formazan in MTT or sulforhodamine B in SRB method) was determined by an optical density measurement using a standard microplate reader for 96-well plates. After optical density measurement, using the data of the mean absorbances of control cells (AbCC), the absorbances of cells treated by the tested compound (AbTr) (for each concentration separately) and the absorbance of the cultured medium (AbCM) the % of cell proliferation inhibition was calculated according to the following formula: % inh. cells proliferation=100−AbTr−AbCM/AbCC−AbCM×100
(§5) From the obtained proliferation inhibition values, effect-concentration curves of the compound used were plotted. […] IC50 values were calculated for each experiment separately using the Prolab-3 system based on Cheburator 0.4 software [36] and mean values (±SD) are presented. Each compound in each concentration was tested in triplicate in a single experiment, which was repeated 3–5 times.

PC-3 cell line = experiment: Antiproliferative activity, SRB assay, PC-3 prostate carcinoma cells; conditions: for IC50: Homo sapiens, PC-3, 72 h, read-out: Cytotoxicity IC50 against PC-3 cell line; for Calculated Selectivity Index SI, PC-3: IC50 BALB/3T3 / IC50 PC-3
Experimental: as §1, §2, §3, §4, §5

in vitro = conditions: mouse
Experimental: as §1, §2, §3, §4, §5

A549 cell line = experiment: Antiproliferative activity, SRB assay, A549 lung carcinoma cells; conditions: for IC50: Homo sapiens, A549, 72 h, read-out: Cytotoxicity IC50 against A549 cell line; for Calculated Selectivity Index SI, A549: IC50 BALB/3T3 / IC50 A549
Experimental: as §1, §2, §3, §4, §5

MV4-11 cells = experiment: Antiproliferative activity, MTT assay, MV4-11 leukemia cells; type: cell-based, human; conditions: for IC50: 72 h incubation, MTT, read-out: Growth inhibition IC50, leukemia cell line MV4-11; for Calculated Selectivity Index SI, MV4-11: IC50 BALB/3T3 / IC50 MV4-11
Experimental: as §1, §2, §3, §4, §5

[3] = Cytotoxicity, SRB assay, normal BALB/3T3 fibroblasts; conditions: mouse
Experimental: as §1, §2, §3, §4, §5

| Compound | solubility in DMSO [1] | RM0 [2] | IC50 (MCF-7 cell line) [µM] | Calculated Selectivity Index SI, MCF-7 (MCF-7 cell line) | IC50 (PC-3 cell line) [µM] | Calculated Selectivity Index SI, PC-3 (PC-3 cell line) | IC50 at 72 h (in vitro) [µM] | IC50 (A549 cell line) [µM] | Calculated Selectivity Index SI, A549 (A549 cell line) | IC50 (MV4-11 cells) [µM] | IC50 (MV4-11 cells; Homo sapiens, MV4-11, 72 h) [µM] | Calculated Selectivity Index SI, MV4-11 (MV4-11 cells) | IC50 at 72 h [3] [µM] | log PTLC [2] | Antiproliferative Activity, PC-3 (PC-3 cell line; +/− summary, IC50 vs betulin 1) |
| --- | --- | --- | --- | --- | --- | --- | --- | --- | --- | --- | --- | --- | --- | --- | --- |
| C=C(C)[C@@H]1CC[C@]2(COC(=O)c3cccc(C(=O)N4CCCCC4)c3)CC[C@]3(C)C(CCC4[C@@]5(C)CC[C@H](O)C(C)(C)C5CC[C@]43C)C12 (stereo partly drawn) [7c] | not soluble in DMSO | 5.773 |  |  |  |  |  |  |  |  |  |  |  |  |  |
| C=C(C)C1CCC2(COC(=O)C=C(C)C(=O)N3CCOCC3)CCC3(C)C(CCC4C5(C)CCC(O)C(C)(C)C5CCC43C)C12 (stereo not drawn) [3b] |  | 5.086 | 12.3 | 2.0 | 24.8 | 1.0 | 24.7 | 7.42 | 3.3 | 8.9 | < 10 | 2.8 |  |  |  |
| C=C(C)[C@@H]1CC[C@]2(CO)CC[C@]3(C)[C@H](CC[C@@H]4[C@@]5(C)CC[C@H](O)C(C)(C)[C@@H]5CC[C@]43C)[C@@H]12 [Betulin 1, betulin] |  |  | 38.8 | 0.8 | 32.5 | 1.0 |  | 15.5 | 2.0 |  | 18.2 | 1.8 | 31.8 |  |  |
| C=C(C)C1CCC2(COC(=O)C=C(C)C(=O)N3CCSCC3)CCC3(C)C(CCC4C5(C)CCC(O)C(C)(C)C5CCC43C)C12 (stereo not drawn) [3d] |  | 5.711 | 34 | 1.5 | 46.1 | 1.1 | > 50 | 6.78 | 7.4 |  |  | 11.8 |  |  |  |
| C=C(C)[C@@H]1CC[C@]2(COC(=O)CCCC(=O)O)CC[C@]3(C)C(CCC4[C@@]5(C)CC[C@H](O)C(C)(C)C5CC[C@]43C)C12 (stereo partly drawn) [compound 4] |  | 5.250 | 43.9 | 0.9 | 36.2 | 1.0 | 37.9 | 32.5 | 1.2 |  | 24 | 1.6 |  |  |  |
| C=C(C)[C@@H]1CC[C@]2(COC(=O)CCCC(=O)N3CCOCC3)CC[C@]3(C)C(CCC4[C@@]5(C)CC[C@H](O)C(C)(C)C5CC[C@]43C)C12 (stereo partly drawn) [4b] |  | 4.961 | 21.6 | 1.7 | 22.7 | 1.6 | 36.8 | 8.47 | 4.3 | 6.27 | < 10 | 5.9 |  |  |  |
| C#CCNC(=O)CCCC(=O)OC[C@]12CC[C@@H](C(=C)C)C1C1CCC3[C@@]4(C)CC[C@H](O)C(C)(C)C4CC[C@@]3(C)[C@]1(C)CC2 (stereo partly drawn) [4a] |  | 5.158 | 50 | 0.1 |  | 0.3 | 5.02 | 29.1 | 0.2 |  |  | 1.2 |  |  |  |
| C=C(C)[C@@H]1CC[C@]2(COC(=O)CCCC(=O)N3CCCCC3)CC[C@]3(C)C(CCC4[C@@]5(C)CC[C@H](O)C(C)(C)C5CC[C@]43C)C12 (stereo partly drawn) [4c] | not soluble in DMSO | 5.012 |  |  |  |  |  |  |  |  |  |  |  |  |  |
| C=C(C)C1CCC2(COC(=O)C=C(C)C(=O)O)CCC3(C)C(CCC4C5(C)CCC(O)C(C)(C)C5CCC43C)C12 (stereo not drawn) [compound 3] |  | 5.410 | 38.2 | 1.0 | 34.4 | 1.1 | 37.2 | 28.7 | 1.3 |  | 19.9 | 1.9 |  |  |  |
| C#CCNC(=O)C(C)=CC(=O)OCC12CCC(C(=C)C)C1C1CCC3C4(C)CCC(O)C(C)(C)C4CCC3(C)C1(C)CC2 (stereo not drawn) [3a] |  | 5.326 |  |  | 15.3 |  |  |  |  |  | 12.5 |  |  |  |  |
| C=C(C)C1CCC2(COC(=O)C=C(C)C(=O)N3CCCCC3)CCC3(C)C(CCC4C5(C)CCC(O)C(C)(C)C5CCC43C)C12 (stereo not drawn) [3c] | not soluble in DMSO | 5.650 |  |  |  |  |  |  |  |  |  |  |  |  |  |
| C=C(C)[C@@H]1CC[C@]2(COC(=O)c3ccccc3C(=O)O)CC[C@]3(C)C(CCC4[C@@]5(C)CC[C@H](O)C(C)(C)C5CC[C@]43C)C12 (stereo partly drawn) [compound 6] |  | 5.979 |  |  |  |  |  |  |  |  | 34.4 |  |  | 8.283 |  |
| C=C(C)[C@@H]1CC[C@]2(COC(=O)CCCC(=O)N3CCSCC3)CC[C@]3(C)C(CCC4[C@@]5(C)CC[C@H](O)C(C)(C)C5CC[C@]43C)C12 (stereo partly drawn) [4d] |  | 5.008 | 50 | 1.0 | 50 | 1.0 | > 50 | 40.2 | 1.2 | 7.04 | < 10 | 7.1 |  |  |  |
| C#CCNC(=O)c1ccccc1C(=O)OC[C@]12CC[C@@H](C(=C)C)C1C1CCC3[C@@]4(C)CC[C@H](O)C(C)(C)C4CC[C@@]3(C)[C@]1(C)CC2 (stereo partly drawn) [6a] |  | 6.016 |  |  |  |  |  |  |  |  | 24 |  |  | 8.332 |  |
| C=C(C)[C@@H]1CC[C@]2(COC(=O)c3cccc(C(=O)N4CCSCC4)c3)CC[C@]3(C)C(CCC4[C@@]5(C)CC[C@H](O)C(C)(C)C5CC[C@]43C)C12 (stereo partly drawn) [7d] |  | 5.980 |  |  |  |  |  |  |  |  | 72.2 |  |  |  |  |
| C#CC1(NC(=O)c2cccc(C(=O)OC[C@]34CC[C@@H](C(=C)C)C3C3CCC5[C@@]6(C)CC[C@H](O)C(C)(C)C6CC[C@@]5(C)[C@]3(C)CC4)c2)CCCCC1 (stereo partly drawn) [7e] |  | 5.746 |  |  |  |  |  |  |  |  | > 100 |  |  |  |  |
| C#CCNC(=O)CCCCCCCCCC(=O)OC[C@]12CC[C@@H](C(=C)C)C1C1CCC3[C@@]4(C)CC[C@H](O)C(C)(C)C4CC[C@@]3(C)[C@]1(C)CC2 (stereo partly drawn) [5a] |  | 5.998 |  |  |  |  |  |  |  |  | 21 |  |  |  |  |
| C=C(C)[C@@H]1CC[C@]2(COC(=O)CCCCCCCCCC(=O)N3CCCCC3)CC[C@]3(C)C(CCC4[C@@]5(C)CC[C@H](O)C(C)(C)C5CC[C@]43C)C12 (stereo partly drawn) [5c] | not soluble in DMSO | 5.768 |  |  |  |  |  |  |  |  |  |  |  |  |  |
| C#CC1(NC(=O)CCCCCCCCCC(=O)OC[C@]23CC[C@@H](C(=C)C)C2C2CCC4[C@@]5(C)CC[C@H](O)C(C)(C)C5CC[C@@]4(C)[C@]2(C)CC3)CCCCC1 (stereo partly drawn) [5e] |  | 6.093 |  |  |  |  |  |  |  |  | > 100 |  |  |  |  |
| C#CCNC(=O)CCC(=O)OC[C@]12CC[C@@H](C(=C)C)C1C1CCC3[C@@]4(C)CC[C@H](O)C(C)(C)C4CC[C@@]3(C)[C@]1(C)CC2 (stereo partly drawn) [2a] |  | 4.863 | 29.8 | 0.1 | 4.47 | 0.7 | 3.1 | 19.2 | 0.2 |  | 2.03 | 1.5 |  |  | + |
| C=C(C)[C@@H]1CC[C@]2(COC(=O)CSCC(=O)O)CC[C@]3(C)C(CCC4[C@@]5(C)CC[C@H](O)C(C)(C)C5CC[C@]43C)C12 (stereo partly drawn) [compound 9] |  | 6.087 |  |  |  |  |  |  |  |  | 26.4 |  |  |  |  |

Reference: publication PMC9820118, “Betulin Acid Ester Derivatives Inhibit Cancer Cell Growth by Inducing Apoptosis through Caspase Cascade Activation: A Comprehensive In Vitro and In Silico Study” (International Journal of Molecular Sciences, 2022)
